The subject of the data set is HUVEC and HMVEC endothelial cells. Description: PCD in normal ICAM-1 expressing endothelial cells. In kind it is cell-based. Conditions: resting or activated HUVEC/HMVEC. On the procedure:
Target cells were seeded in 96-well culture plates at a density of 2×10^6 cells/mL culture medium. Titrated concentrations of IgG1 B11 or different negative and positive control antibodies were added to the cells, in the absence or presence of anti-human Fab fragment (Jackson ImmunoResearch) for cross-linking. The cells were then incubated for 16 hours at 37° C. in a humidified atmosphere of 5% CO2. The cells were harvested and stained for Annexin V-488/Propidium Iodide (Invitrogen, Sweden) and analysed using flow cytometer (FACS Calibur, BD Bioscience).

The values that follow come from patent US20150352207A1, “USE OF ANTIBODIES AGAINST ICAM-1 IN COMBINATION WITH AN ANTI CANCER DRUG IN THE TREATMENT OF PATIENTS” (BIOINVENT INTERNATIONAL AB, priority 2013, published 2015).

For the molecule `CC(=O)O[C@H]1C(=O)[C@@]2(C)[C@H]([C@H](OC(=O)c3ccccc3)[C@]3(O)C[C@H](OC(=O)[C@H](O)[C@@H](NC(=O)c4ccccc4)c4ccccc4)C(C)=C1C3(C)C)[C@]1(OC(C)=O)CO[C@@H]1C[C@@H]2O` [paclitaxel, reference compound], the “programmed cell death of normal endothelial cells” value is “induced significant endothelial cell and B cell programmed cell death”.
